Key:
[1] = system: h-MTC cells; assay: RNA microarray of MTC cells; assay type: cell-based, human
Excerpt: Treatment of animals with unmodified or nanoparticulate Tetrac. […] Estimation of tumor response to Tetrac or nanoparticulate Tetrac. […] Statistical analysis for CAM and xenograft studies. […] Statistical significance was defined as P <0.05. RNA microarray analysis.

[2] = system: MDA-MB-231 cells; assay: RNA microarray of MDA-MB-231 cells; assay type: cell-based, human
Procedure: Tetrac and nanoparticulate Tetrac. Tetrac was custom-synthesized by Peptido GMBH (Bembach, Germany). The proprietary Tetrac nanoparticle was custom-synthesized by covalently-bonding of the outer ring hydroxyl of Tetrac to PLGA via an intervening linker. […] Cell culture for definition of effects of Tetrac formulations on tumor cell proliferation. MDA-MB-231 cells were purchased from ATCC (Manassas, VA). Cells were maintained until use in DMEM that contained 10% FBS. The incubator conditions were 5% CO2/95% 02 and 37° C. The action of unmodified Tetrac and nanoparticulate on MDA-MB-231 cells was determined in a perfusion bellows cell culture system we have recently described for quantitating pharmaceutical agent pharmacodynamics in vitro. (See Lin et al., J Steroid Biochem Mol Biol 113: 182-188 (2009)). In brief, the cell culture system is a disposable bioreactor capable of high density cell culture for studies of anti-cancer drugs. Bellows-induced alternate flow of culture medium and air through porous matrices where cells are grown provides a relatively low shear, high aeration, foam-free culture environment. Medium level is raised and lowered to submerge and expose matrices to create a dynamic interface between air and media on the cell surface. Anchorage-dependent cells are grown on plastic flakes in the system. The flakes facilitate harvesting of whole cells for analysis. In the present studies, 5 x 10^7 cells were seeded in each perfusion flask and incubated at 37 C overnight. Flakes thereafter were sampled at regular intervals (Figure 44), subjected to trypsinization and the harvested cells counted. When Tetrac or nanoparticulate Tetrac were initially added to the system, flasks contained 20-50 x 10^6 cells. Cell cultures were re-fed with 1% FBS-containing medium. Studies were carried out in duplicate flasks and replicated once. Cell culture for harvesting of RNA. MDA-MB-231 cells were maintained in DMEM that was supplemented with 10% FBS in a 5% CO2/95% 02 air incubator at 37°C. For two days prior to exposure to Tetrac and nanoparticulate Tetrac, cells were maintained in 0.25% FBS that was stripped of estrogen and thyroid hormone. (See Lin et al., Biochemistry 42: 7571-7579 (2003)). RNA microarray and analysis. Microarray analysis experiments were conducted as described previously. (See Glinsky et al., J Clin Invest 115: 1503-1521 (2005); Glinsky et al., J Clin Invest 113: 913-923 (2004); Glinsky et al., Clin Cancer Res 10: 2272-2283 (2004); and Glinsky et al., Mol Carcinog 37: 209-221 (2003)). In brief, the array hybridization and processing, retrieval of data and analysis utilized standard sets of Affymetrix (Santa Clara, CA) equipment, software and protocols in the microarray core facility of Ordway Research Institute. […] Sample purity and integrity were verified with an Agilent BioAnalyzer (Santa Clara, CA). Expression analysis of 54,675 transcripts for each sample was by Affymetrix HG-U133A Plus 2.0 arrays. MAS5.0 software was used for data retrieval and analysis and concordant changes of gene expression in response to unmodified Tetrac and nanoparticulate Tetrac were defined by two-tailed t test at a threshold p value < 0.01.
Expression of ~54,000 transcripts was analyzed in control and drug-treated cultures, using Affymetrix Human Genome U133 plus 2.0 microarrays. Subsequent analysis was focused on genes affected by treatment at p < 0.01. There was 93% concordance between Tetrac and Tetrac NP in terms of genes affected; notable disparities included downregulation of epidermal growth factor receptor (EGFR) by Tetrac NP and no affect of unmodified Tetrac on this gene.

[3] = system: GL261 cells; assay: Potentially lethal damage repair (PLDR); assay type: cell-based, murine
Procedure: PLDR was also measured using the 10% survival level in both control and Tetrac treated-cells, and was also done for both exponentially growing and plateau phase cells. The total 10% survival dose was given, and then cells were placed back into the 37°C incubator for various periods of time. At 0, 0.5, 1.0, 1.5, 2.0, 3.0, 4.0, 6.0, 8.0, and 10.0 hours, flasks were removed, and processed for survival assessment.
To investigate the effects of Tetrac on SLDR and PLDR, cells were chosen that had been given a one-hour treatment with Tetrac at two different times, i.e., at 70 and 270 hours post-seeding).

[4] = system: GL261 tumor cells; assay: 44°C hyperthermia survival; assay type: cell-based, murine
Procedure: Additionally, Tetrac sensitizes GL261 cells in hyperthermic conditions. Graded heat treatment of GL261 tumor cells with 44°C was given, without and with Tetrac. Tetrac increased cell killing as compared to control cells alone, by the equivalent of about 1°C (i.e., 44°C plus Tetrac is the equivalent of 45°C without Tetrac). (See Figure 63).

[5] = gene expression, listed as unmodified Tetrac

SMILES: O=C(O)Cc1cc(I)c(Oc2cc(I)c(O)c(I)c2)c(I)c1 [Tetrac, 3,3',5,5'-tetraiodothyroacetic acid]
- expression of VEGFA [1]: significantly decreased expression
- expression of apoptosis-associated genes (CASP2, DFFA, FAF1, CASP8AP2) [1]: caused expression
- expression of thrombospondin (THBS1) [1]: increase
- expression of epidermal growth factor receptor (EGFR) ([2]; 10^-7 M, 24 h): no affect
- Change: CBY1 ([2]; gene expression): significantly increased
- Change: CDKN2C (Cyclin-dependent kinase inhibitor) ([2]; gene expression): ↑
- Change: Cyclins (Cell cycle regulators) ([2]; gene expression): ↓
- Change: THBS1 ([2]; gene expression): strongly induced
- Change: BCL2L14 [2, 5]: not a significant stimulatory action
- Change: CASP2 [2, 5]: not a significant stimulatory action
- Change: MCL1 [2, 5]: did not significantly affect
- Change: XIAP [2, 5]: also acted on XIAP
- factor by which Tetrac inhibited PLDR ([3]; exponential cells): 1.9
- factor by which Tetrac decreased PLDR expression ([3]; plateau phase cells): 3.4
- increase in cell killing as temperature equivalent ([4]; 44°C plus Tetrac): about 1 °C
- sensitization factor ([4]; Tetrac 2uM, 20 minutes at 44°C): 3.8

Source: patent EP2662079A1 (Ordway Research Institute, Inc., priority 2012, dated 2013)
